Reference: the supplement of paper PMC13380429

Key:
A549-ACE2 [1] = assay: phospholipidosis EC50; higher = less potent phospholipidosis inducer
Caco-2 [2] = assay: drug sensitivity score (DSS) for viability; higher = more toxic; extreme values may be limits of the assay; settings: 72 h
U2OS [3] = assay: as above; settings: 72 h
Vero E6 [4] = assay: as above; settings: 72 h
HepG2 [5] = assay: as above; settings: 72 h
Calu-3 [6] = assay: as above; settings: 72 h
[7] = test system: A549-ACE2 infected with SARS-CoV-2; assay: cell count relative to DMSO; higher = less toxic; settings: 24 h
[8] = test system: A549-ACE2 infected with SARS-CoV-2; assay: SARS-CoV-2 infection rate relative to DMSO; higher = more infection; settings: 24 h
A549-ACE2 [9] = assay: drug-induced phospholipidosis relative to tamoxifen; higher = more phospholipidosis
[10] = test system: A549-ACE2 infected with SARS-CoV-2; assay: morphology score (similarity to uninfected cells); higher = more like uninfected cells; settings: 24 h
Caco-2 [11] = assay: relative viability EC50 (midpoint between 100% and the lowest measured viability); higher = less toxic; settings: 72 h
U2OS [12] = assay: as above; settings: 72 h
Vero E6 [13] = assay: as above; settings: 72 h
HepG2 [14] = assay: as above; settings: 72 h
Calu-3 [15] = assay: as above; settings: 72 h
Caco-2 [16] = assay: cell viability relative to DMSO; higher = less toxic; settings: 72 h
U2OS [17] = assay: as above; settings: 72 h
Vero E6 [18] = assay: as above; settings: 72 h
HepG2 [19] = assay: as above; settings: 72 h
Calu-3 [20] = assay: as above; settings: 72 h

CN1CCN(Cc2ccc(-c3cnc4[nH]cc(-c5ccc6[nH]ccc6c5)c4c3)cc2)CC1 [URMC-099]
Settings | SARS-CoV-2 infection rate [%] | cell count [%] | cell viability [%] | morphology score | phospholipidosis EC50 [µM]
A549-ACE2 [1], 24 h | – | – | – | – | 1.07
A549-ACE2 [1], 48 h | – | – | – | – | 4.29
A549-ACE2 [1], 72 h | – | – | – | – | 8.25
Caco-2 [16], 1 nM | – | – | 103 | – | –
Caco-2 [16], 10 nM | – | – | 107 | – | –
Caco-2 [16], 100 nM | – | – | 104 | – | –
Caco-2 [16], 1000 nM | – | – | 111 | – | –
Caco-2 [16], 10000 nM | – | – | 7.8 | – | –
Calu-3 [20], 1 nM | – | – | 93.1 | – | –
Calu-3 [20], 10 nM | – | – | 100 | – | –
Calu-3 [20], 100 nM | – | – | 95.3 | – | –
Calu-3 [20], 1000 nM | – | – | 128 | – | –
Calu-3 [20], 10000 nM | – | – | 111 | – | –
HepG2 [19], 1 nM | – | – | 111 | – | –
HepG2 [19], 10 nM | – | – | 89.8 | – | –
HepG2 [19], 100 nM | – | – | 95.8 | – | –
HepG2 [19], 1000 nM | – | – | 89.2 | – | –
HepG2 [19], 10000 nM | – | – | 5.3 | – | –
U2OS [17], 1 nM | – | – | 99 | – | –
U2OS [17], 10 nM | – | – | 95.5 | – | –
U2OS [17], 100 nM | – | – | 104 | – | –
U2OS [17], 1000 nM | – | – | 95.2 | – | –
U2OS [17], 10000 nM | – | – | 3.5 | – | –
Vero E6 [18], 1 nM | – | – | 92.9 | – | –
Vero E6 [18], 10 nM | – | – | 102 | – | –
Vero E6 [18], 100 nM | – | – | 95.4 | – | –
Vero E6 [18], 1000 nM | – | – | 105 | – | –
Vero E6 [18], 10000 nM | – | – | 0.9 | – | –
[7], 0.1 µM | – | 111 | – | – | –
[7], 0.3 µM | – | 105 | – | – | –
[7], 1 µM | – | 110 | – | – | –
[7], 3 µM | – | 108 | – | – | –
[8], 0.1 µM | 99 | – | – | – | –
[8], 0.3 µM | 102 | – | – | – | –
[8], 1 µM | 85 | – | – | – | –
[8], 3 µM | 18 | – | – | – | –
[10], 0.1 µM | – | – | – | 0.26 | –
[10], 0.3 µM | – | – | – | 0.37 | –
[10], 1 µM | – | – | – | 0.6 | –
[10], 3 µM | – | – | – | 0.68 | –

Settings | drug sensitivity score | relative viability EC50 [µM]
Caco-2 [2] | 4.4 | –
Caco-2 [11] | – | 3.71
Calu-3 [6] | 0 | –
Calu-3 [15] | – | > 10
HepG2 [5] | 7 | –
HepG2 [14] | – | 2.23
U2OS [3] | 6 | –
U2OS [12] | – | 2.79
Vero E6 [4] | 5.1 | –
Vero E6 [13] | – | 3.45

drug-induced phospholipidosis [%], A549-ACE2 [9]
Settings | 0.3 µM | 0.833333 µM | 3.33333 µM | 6.66667 µM | 10 µM
24 h | 3.77 | 15.4 | 149 | 143 | 136
48 h | 2.54 | 6.25 | 111 | 164 | 208
72 h | 3.51 | 1.18 | 69.5 | 69.5 | 200
